# Where a SMILES comes first, the peptide text is derived from it. Bridges are numbered along the chain shown (N, C = ends).
# Experiment: In vivo pharmacokinetic study, plasma LC-MS/MS
# Details: mouse, iv, 1 nmol/g body weight, male ICR mice, mean ± SD
# Source text: These animal experiments were approved by the Animal Care and Use Committee of Osaka University (approval No. Douyaku 30-3-2) and conducted at Osaka University in accordance with the aforementioned guidelines. LC–MS/MS data were obtained using an LCMS-8060NX MS system (Shimadzu Corp., Kyoto, Japan) connected to a Nexera X3 UHPLC system (Shimadzu) equipped with a Peptide BEH C18 column (1.7 μm, 2.1 × 50 mm, Waters Corp., Milford, MA, USA). Mobile phase A was 0.1% formic acid in water, and mobile phase B was acetonitrile. The elution profile of mobile phase B was 5% isocratic between 0 to 1 min, linear gradient from 5% to 50% between 1 to 1.5 min, and increase from 50% to 75% between 1.5 to 3 min. The flow rate was 0.2 mL/min. For pharmacokinetic studies, free or nanoformulated KS-133 was administered intravenously or subcutaneously to male ICR mice at 1 nmol/g body weight. Serial blood samples were collected from the tail vein using heparinized capillary tubes at the indicated times after administration. The plasma (5 μL) obtained from each blood sample was mixed with 10 μL of 0.1% formic acid in 50% (v/v) acetonitrile/water, and subsequently, 50 μL of acetonitrile was added. After centrifugation, aliquots (50 μL) of the supernatant were mixed with equal volumes of 0.2% formic acid in water and then injected into the LC–MS/MS system. Pharmacokinetic parameters were obtained from the plasma concentration–time data by non-compartmental analysis using Phoenix WinNonlin Software (Certara Companies, NJ, USA).
# Fig 4 Pharmacokinetic study of KS-133 and KS-133 NPs in mice. Concentration of peptides in plasma at indicated time points after administration of peptide with or without nanoformulation are presented. (A) Intravenous administration of KS-133 (n = 3, 1 nmol/g, mean ± SD). (B) Subcutaneous administration of KS-133 and KS-133 NPs (n = 5, 1 nmol/g, mean ± SD). (C) Blood samples were collected at the indicated times. The concentration of KS-133 in plasma was determined by LC–MS/MS (mean ± SD, *p < 0.05 by Student’s t-test). The pharmacokinetic parameters Cmax (μM), tmax (h), t1/2 (h), AUC0-t (μmol·h/L), AUC0-inf,pred (μmol·h/L), and MRTinf,pred (h) were calculated as described in the “Materials and methods” section. […]
smiles,measurement,setting,value
CC[C@H](C)[C@H](NC(=O)[C@H](CC(C)C)NC(=O)[C@@H]1CC(=O)NCCCC[C@@H]2NC(=O)[C@@H]3CCCN3C(=O)[C@H](CC(C)C)NC(=O)[C@H](Cc3ccc(O)cc3)NC(=O)[C@@H]3CCCN3C(=O)[C@@H]3CCCN3C(=O)[C@@H](NC(C)=O)CSSC[C@H](NC(=O)[C@H](CC(C)C)NC(=O)[C@H](Cc3ccc(O)cc3)NC2=O)C(=O)N1)C(N)=O [KS-133] (Ac-CPPYLPKYLCDLI-NH2; disulfide 1-10; lactam 7-11),AUC(0-inf),"i.v., n = 3, read-out: AUC0-inf, pred",10.1 ± 1.73 µM·h
same,MRT,"i.v., n = 3, read-out: MRTinf, pred",58.8 ± 6.6 min
same,half-life,"i.v., non-compartmental, n = 3, read-out: t1/2 (elimination half-life from plasma) (converted)",40.8 min
same,AUC(0-t),n = 3,7.51 ± 1.77 µM·h
